Consider 18 compounds from PubChem BioAssay (NCI).

Assay in all cases: NCI tumour cell line growth inhibition, 48 h
Assay [1] has as its system UACC-62 melanoma.
In assay [2] the test system is NCI/ADR-RES ovarian.
In assay [3] the test system is NCI-H226 lung.
The subject of assay [4] is LOX IMVI melanoma.
For assay [5], the system named is RPMI-8226 leukemia.
Assay [6] concerns HOP-92 NSCLC.
In assay [7] the test system is NCI-H522 lung.
Assay [8] concerns HCT-116 colon.
Assay [9] has as its system A498 renal.
Assay [10] deals with HL-60(TB) leukemia.

Each structure is given as a SMILES string.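 Five concentrations, 48 hours, 96-well plates. The concentration for 50% growth inhibition is given as GI50. TGI: concentration producing complete growth inhibition.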

Take `CCCCCCCCCCCCCCCC(=O)NS(=O)(=O)OC[C@H]1O[C@@H](n2cnc3c(N)ncnc32)[C@H](O)[C@@H]1O`: the GI50 in assay [1] is 0.215 µM; in [2] it was 0.0917 µM; in [3], under 0.0245 µM; in assay [4] it was 0.394 µM; in assay [5] it was 3.44 µM; in assay [6], under 0.024 µM. Besides, the GI50 in [7] was 0.0479 µM; in assay [8] it was 0.0719 µM; in [9] it was under 0.03 µM; in assay [10], 0.454 µM. Also, the TGI in assay [1] was 0.599 µM; in assay [2], 3.55 µM; in assay [3], under 0.0497 µM; in assay [4], 1.58 µM; in assay [5], 14.2 µM; in assay [7], 0.427 µM. The TGI was 1.21 µM in assay [8], under 0.048 µM in assay [9] and 4.72 µM in assay [10].
As to `C[n+]1cccc(NC(=O)c2ccc3ccc4ccc(C(=O)Nc5ccc[n+](C)c5)nc4c3n2)c1`, the GI50 in assay [1] is 0.357 µM; in assay [2], over 100 µM; in assay [3], 0.121 µM; in [4], 5.6 µM; in assay [5] it was 2.99 µM; in [6], 7.15 µM. Moreover, the GI50 was 0.645 µM in assay [7], 3.18 µM in assay [8], 7.14 µM in assay [9] and 3.54 µM in assay [10]. Moreover, the TGI in assay [1] was 2.05 µM; in assay [2], over 100 µM; in assay [3], 0.693 µM; in assay [4], over 100 µM; in assay [5] it was over 100 µM; in assay [6], over 65.1 µM. Besides, the TGI is 23 µM in assay [7], over 100 µM in assay [8], over 28 µM in assay [9] and over 100 µM in assay [10].
With `Nc1c(C(=O)Nc2cccc(Cl)c2)sc2nc3c(cc12)C(O)CCC3` (configuration not stated), the GI50 is 0.463 µM in assay [1]; 0.583 µM in [2]; 2.68 µM in [3]; 0.762 µM in [4]; 0.36 µM in assay [5]; 0.824 µM in [6]. For the same compound, the GI50 was 0.434 µM in [7], 0.44 µM in assay [8], 0.182 µM in assay [9] and 0.234 µM in assay [10]. The TGI in assay [1] was 58.8 µM; in assay [2], over 100 µM; in assay [3], 38.1 µM; in assay [4], 52.1 µM; in assay [5] it was 5.01 µM; in [6], 38.2 µM. Further, the TGI in assay [7] was determined as 23.6 µM; in assay [8], 19.1 µM; in assay [9] it was 13.6 µM; in assay [10] it was 0.821 µM.
On to `COc1ccc2nc3cc([N+](=O)[O-])ccc3c(NCCO)c2c1`, for which the GI50 in assay [1] was 1.93 µM; in [2], 10 µM; in assay [3], 3.67 µM; in assay [4] it was 2.51 µM; in assay [5], 1.39 µM; in assay [6], 1.86 µM. For the same compound, the GI50 in assay [7] was 1.39 µM; in assay [8], 2.2 µM; in assay [9], 12.7 µM; in assay [10] it was 3.03 µM. Further, the TGI was found to be 5.23 µM in assay [1]; 14.7 µM in assay [3]; 9.18 µM in assay [4]; 7.16 µM in [5]; 7.02 µM in assay [6]; 2.84 µM in assay [7]. For the same compound, the TGI amounted to 10.5 µM in [8] and 32.7 µM in assay [9].
As to `Cn1c2c(c3ccccc31)CCN1C[C@@H]3CCCC[C@H]3C[C@@H]21`, the GI50 was 4.19 µM in assay [1]; 0.928 µM in [2]; 2.75 µM in [3]; 2.99 µM in assay [4]; 3.06 µM in assay [5]; 3.44 µM in assay [6]. The GI50 in [7] is 1.74 µM; in [8] it was 3.19 µM; in assay [9], 2.08 µM; in assay [10], 2.27 µM. In addition, the TGI was over 100 µM in assay [1]; 9.7 µM in assay [2]; over 26.1 µM in assay [3]; over 37.3 µM in [4]; over 26.3 µM in [5]; 34.2 µM in [6]. For the same compound, the TGI was 4.44 µM in assay [7], over 31.2 µM in [8], 7.07 µM in assay [9] and over 28.4 µM in assay [10].
For the compound `COc1cc(-c2oc3c(OC)c(O)c(OC)c(O)c3c(=O)c2OC)cc(OC)c1OC`, the TGI in assay [1] is over 100 µM; in assay [2] it was over 100 µM; in assay [3] it was over 100 µM; in assay [4] it was over 100 µM; in [5] it was over 100 µM; in assay [7] it was 81.8 µM. The TGI in assay [8], in [9] and in assay [10] was over 100 µM each time.
In the case of `COc1ccc2c(c1)OCC1c3cc(OC)c4ccccc4c3OC21` (configuration not stated), the GI50 is 3.05 µM in assay [1]; 4 µM in assay [2]; 15.6 µM in [3]; 16.5 µM in [4]; 10.6 µM in assay [5]; 22.3 µM in assay [6]. In addition, the GI50 in assay [8] is 6.65 µM; in [9], 25 µM; in assay [10], 2.61 µM. The TGI was 18.9 µM in assay [1]; 28.2 µM in [2]; 90.2 µM in assay [3]; over 100 µM in [4]; over 100 µM in assay [5]; over 100 µM in assay [6]. The TGI in [8] is over 100 µM; in assay [9], over 100 µM; in assay [10] it was 9.61 µM.
For `CC(=O)OC(COc1ccc2c(c1)[n+]([O-])nc(N)[n+]2[O-])CN1CCCCC1` (configuration not stated), the TGI is over 100 µM in assay [2]; 54 µM in assay [3]; 25.8 µM in assay [5]; over 100 µM in assay [6]; 38.7 µM in assay [7]; 59.2 µM in assay [8]. The TGI in assay [9] is 16.5 µM; in assay [10], 26.9 µM.
In the case of `Clc1nc(Cl)c2ncn(-c3ccccc3)c2n1`, the GI50 was 11.3 µM in assay [1]; 1.85 µM in assay [2]; 12.1 µM in assay [3]; 1.67 µM in [4]; 2.15 µM in assay [6]; 1.9 µM in assay [7]. Besides, the GI50 in assay [8] is 2 µM; in [9], 12 µM; in assay [10] it was 1.96 µM. The TGI in assay [1] turned out to be 25.3 µM; in [2], 3.55 µM; in [3] it was 28.5 µM; in [4], 3.28 µM; in assay [6] it was 5.51 µM; in assay [7] it was 5.09 µM. In addition, the TGI came out at 4.69 µM in assay [8], 25 µM in assay [9] and 4.21 µM in assay [10].
Regarding `Cn1cc(-c2csc(-c3ccccc3)n2)c2cccnc21`, the GI50 in assay [1] is 12.3 µM; in assay [2], 19.3 µM; in [3], 16.6 µM; in assay [4], 12.8 µM; in assay [5], 14.3 µM; in [6], 1.81 µM. The GI50 in assay [7] is 14.1 µM; in [8], 13.8 µM; in [10], 9.4 µM. Moreover, the TGI is 25.5 µM in assay [1]; 49.6 µM in [2]; 42.4 µM in [3]; 25.4 µM in assay [4]; 98 µM in assay [5]; 15.4 µM in assay [6]. Also, the TGI in [7] turned out to be 33.3 µM; in [8], 26.7 µM; in assay [10], 34 µM.
Turning to `CCCCCOC(=O)Nc1nc(=O)n(C2OC(C)C(O)C2O)cc1F` (configuration not stated), the GI50 in assay [2] was over 10000 µM; in assay [6], over 10000 µM; in assay [7], over 10000 µM; in assay [8], over 10000 µM; in assay [10], 5070 µM. Also, the TGI in [2], in assay [6], in [7], in assay [8] and in assay [10] was over 10000 µM throughout.
For `Nc1nc(N)c2cc(S(=O)(=O)c3ccc4ccccc4c3)ccc2n1`, the TGI is over 100 µM in assay [1]; over 100 µM in assay [2]; over 100 µM in assay [3]; over 100 µM in assay [4]; over 100 µM in assay [5]; 34.8 µM in assay [6]. Moreover, the TGI was over 93 µM in assay [7], over 100 µM in assay [8] and over 100 µM in [10]. In addition, the GI50 in [3] is 10.8 µM.
On to `COC(=O)C1c2cc3c(c(O)c2CCC1(C)O)C(=O)c1c(O)cc2c(c1C3=O)OC1OC2(C)C(O)C(N(C)C)C1O` (configuration not stated), for which the TGI turned out to be 1.91 µM in [1]; 3.54 µM in [2]; 0.45 µM in assay [3]; 1.4 µM in assay [4]; 2.81 µM in assay [7]; 24.2 µM in assay [8]. The TGI in assay [10] worked out at 2.8 µM.
For `CNC(=O)/C=C/C1=CN2C(=O)c3ccc(C)c(O)c3NC(OC)C2C1` (configuration not stated), the TGI in assay [1] is under 0.0154 µM; in [2] it was under 0.0323 µM; in [3], 0.0731 µM; in assay [4], 4.19 µM; in assay [5], 16.2 µM; in [7], under 0.0169 µM. Moreover, the figures for the TGI in assay [8], in assay [9] and in assay [10] were over 4.64 µM, 0.713 µM and 0.865 µM, respectively.
Regarding `COc1cc(/C=C2\CC3C4CCC5=CC(=O)CC[C@]5(C)C4CC[C@]3(C)C2=O)ccc1OCCN1CCCC1` (some centres not stated), the GI50 is 2.06 µM in [1]; 2.45 µM in assay [2]; 1.81 µM in assay [3]; 2.01 µM in assay [4]; 0.202 µM in [5]; 1.41 µM in assay [6]. Besides, the GI50 was 2.33 µM in assay [7], 1.41 µM in [8] and 5.05 µM in assay [9]. Moreover, the TGI is 5.02 µM in [1]; 6.51 µM in [2]; 7.08 µM in assay [3]; 3.97 µM in assay [4]; 0.889 µM in [5]; 3.87 µM in [6]. Also, the TGI in assay [7] turned out to be 5.45 µM; in assay [8] it was 3.79 µM; in assay [9], 10.6 µM.
With `O=C(O)c1ccc(CSc2nc3ccccc3[nH]2)cc1`, the GI50 in assay [2], in [3], in assay [4], in [5], in assay [6] and in assay [7] was over 100 µM throughout. Besides, the GI50 in assay [8], in assay [9] and in [10] was over 100 µM each time. Further, the TGI in assay [2], in assay [3], in assay [4], in [5], in [6] and in [7] was over 100 µM throughout. Moreover, the TGI in assay [8], in assay [9] and in [10] was over 100 µM each time.
With `O=C(CCN1CCCCC1)c1csc2ccccc12`, the TGI in assay [1], in assay [2], in [3], in assay [4], in [5] and in [6] was over 100 µM each time. Besides, the TGI in assay [7], in assay [8] and in assay [9] was over 100 µM throughout.
With `COc1cccc(C(=O)NNc2nc(Cl)nc(N3CCN(C(c4ccccc4)c4ccccc4)CC3)n2)c1`, the GI50 is 2.3 µM in assay [1]; 2.18 µM in assay [2]; 17 µM in assay [3]; 1.7 µM in assay [4]; over 100 µM in assay [5]; 1.57 µM in assay [6]. Further, the GI50 in [8] is 1.77 µM; in assay [9], 14.1 µM; in [10], 6.29 µM. For the same compound, the TGI in [1] is 5.85 µM; in assay [2], 5.05 µM; in assay [3], 38 µM; in assay [4], 3.14 µM; in assay [5] it was over 100 µM; in [6], 3.82 µM. Besides, the TGI in assay [8] was determined as 3.73 µM; in assay [9], 40.2 µM; in [10] it was 43.9 µM.
